Data from US6908940B2, “Imidazole compounds and their use as adenosine deaminase inhibitors” (Fujisawa Pharmaceutical Co., Ltd., priority 2000, dated 2005).

Target: T1, Human ADA (Homo sapiens, UniProt P00813)
T1 construct: made in house
T1 sequence (P00813 1-363): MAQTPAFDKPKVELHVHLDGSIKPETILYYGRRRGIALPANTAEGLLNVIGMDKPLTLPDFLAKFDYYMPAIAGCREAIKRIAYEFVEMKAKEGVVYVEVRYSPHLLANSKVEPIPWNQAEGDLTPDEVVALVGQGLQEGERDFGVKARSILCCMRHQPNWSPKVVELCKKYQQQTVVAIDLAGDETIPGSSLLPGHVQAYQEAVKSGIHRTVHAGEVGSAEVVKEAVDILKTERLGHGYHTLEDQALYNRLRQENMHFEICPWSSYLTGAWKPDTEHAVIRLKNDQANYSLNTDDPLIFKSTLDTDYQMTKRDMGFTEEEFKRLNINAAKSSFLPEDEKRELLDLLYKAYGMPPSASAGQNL
Assay: Adenosine Deaminase (ADA) Enzyme Assay
Format: biochemical
Details: 50% inhibition of Vmax vs vehicle; 0.16 μg/ml ADA, 0.1 mM adenosine, phosphate buffer saline pH 7.4, room temperature, decrease in A265 for 3 minutes
Experimental: Adenosine Deaminase (ADA) Enzyme Assay
• 1-{(2S,3R)-2-hydroxy-5-[2-(3-(4-chlorophenyl)propoxy)-phenyl]-3-pentyl}imidazole-4-carboxamide (Example 8) • 1-[(2S,3R)-2-hydroxy-5-(7-chloro-1-naphthyl)-3-pentyl]-imidazole-4-carboxamide (Example 12) Test Method:
The reaction velocity (V) is measured by a change in absorbance at 265 nm (A265) resulting from the deamination of adenosine. Human ADA was expressed and purified from ADA-deficient bacterial strain. Reaction mixtures of a total volume of 200 μl contained 0.16 μg/ml of ADA and 0.1 mM of adenosine and test compound in 10 mM phosphate buffer saline (pH 7.4). The reaction was started by addition of ADA to a mixture of adenosine and test compound. The reaction was followed at room temperature by recording decrease in A265 for 3 minutes in SPECTRAmax 250 (Molecular Devices, USA) to automatically calculate Vmax. Inhibitory potency of test compound was expressed as IC50 value, the drug concentration required to produce 50% inhibition of Vmax in comparison to vehicle treatment.

Row | IC50 | SMILES
1 | < 20 nM | C[C@H](O)[C@@H](CCc1ccccc1OCCCc1ccc(Cl)cc1)n1cnc(C(N)=O)c1 [Example 8, 1-{(2S,3R)-2-hydroxy-5-[2-(3-(4-chlorophenyl)propoxy)phenyl]-3-pentyl}imidazole-4-carboxamide]
2 | < 20 nM | C[C@H](O)[C@@H](CCc1cccc2ccc(Cl)cc12)n1cnc(C(N)=O)c1 [Example 12, 1-[(2S,3R)-2-hydroxy-5-(7-chloro-1-naphthyl)-3-pentyl]imidazole-4-carboxamide]
